Patent publication US11426409B2, “Compounds, compositions and methods for treating or preventing HER-driven drug-resistant cancers” (The Regents of the University of Colorado, priority 2017, dated 2022)

Test system: HER2 phosphorylation
Details: HER2-driven cell lines, 2 hours, normoxic, immunoblot

## CN(C)CC=CC(=O)Nc1cc2c(Nc3ccc(F)c(Cl)c3)ncnc2cc1O[C@H]1CCOC1 [afatinib, N-[4-[(3-Chloro-4-fluorophenyl)amino]-7-[[(3S)-tetrahydro-3-furanyl]oxy]-6-quinazolinyl]-4(dimethylamino)-2-butenamide]
  Concentration inhibiting HER2 phosphorylation (pHER2): 100 nM
